Test results as given in patent publication US9028845B2, “Chimeric immunomodulatory compounds and methods of using the same-IV” (Dynavax Technologies Corporation, priority 2001, dated 2015).

Tests used:
[1] = test system: human PBMCs; assay: Human PBMC cytokine response assay (IFN-γ and IFN-α in cell-free medium by ELISA), with or without cPLGA; type: cell-based;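 for IFN-α (pg/ml) mean: 20 µg/mL compound for 24 hours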;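 for IFN-γ (pg/ml) mean: 20 µg/mL compound for 24 hours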
[2] = test system: mice; assay: Serum cytokines (IL-12 p40, IL-6, TNF-α) after subcutaneous injection in mice; type: in vivo; conditions: 20 ug subcutaneous, blood 2 hours later
Protocol: Blood was collected 2 hours later. For the LPS positive control group, mice were injected intraperitoneally with a 200 ul volume, and blood was collected 1.5 hours later (i.e., at the peak of LPS induced TNF-α activity). The blood was clotted and the serum was prepared and stored at −80° C. until assayed. Serum cytokines were assayed using Biosource cytoscreen kits for TNF-α and Pharmingen antibody pairs for mIL-6 and mIL-12. All samples were assayed in duplicate.

[3] = Table 24, mean of donors 28234-28237
[4] = Table 25, mean of donors 28250-28253
[5] = donor 28066, 20 ug/ml, 24 h, + PLGA = premixed with 100 μg/ml cPLGA
[6] = donor 28067, 20 ug/ml, 24 h, + PLGA = premixed with 100 μg/ml cPLGA
[7] = donor 28068, 20 ug/ml, 24 h, + PLGA = premixed with 100 μg/ml cPLGA
[8] = mean of Donors 1-2, 20 μg/ml, 24 h
[9] = mean of Donors 3-4, 20 μg/ml, 24 h
[10] = mean of Donors 5-6, 20 μg/ml (mixtures: 20 μg/ml total), 24 h
[11] = mean of Donors 7-8, 20 μg/ml, 24 h
[12] = mean of Donors 9-12, 20 μg/ml, 24 h
[13] = mean of donors 110, 112, 119, 120, Table 14
[14] = mean of donors 28057-28060, Table 16
[15] = mean of donors 28065-28068, 20 ug/ml, 24 h, + PLGA = premixed with 100 μg/ml cPLGA
[16] = mean of donors 28185-28188, Table 15
[17] = mean of donors 28218-28221, 20 μg/ml, 24 h

Substance: 5′-TGACTGTGAACGTTCGAGATGA-3′ (SEQ ID NO: 2) [Compound P-6, reference compound]
- IFN-α ([1]; Table 13, donor 28158): 7 pg/mL
- IFN-γ ([1]; Table 13, donor 28158): 207 pg/mL
- IFN-α ([1]; Table 13, donor 28159): 32 pg/mL
- IFN-γ ([1]; Table 13, donor 28159): 231 pg/mL
- IFN-α mean ([1]; Table 13, mean of donors): 144 pg/mL
- IFN-γ mean ([1]; Table 13, mean of donors): 611 pg/mL
- IFN-α ([1]; Table 24, donor 28234): 58 pg/mL
- IFN-γ ([1]; Table 24, donor 28234): 15 pg/mL
- IFN-α ([1]; Table 24, donor 28235): 16 pg/mL
- IFN-γ ([1]; Table 24, donor 28235): 52 pg/mL
- IFN-α ([1]; Table 24, donor 28236): 16 pg/mL
- IFN-γ ([1]; Table 24, donor 28236): 51 pg/mL
- IFN-α ([1]; Table 24, donor 28237): 74 pg/mL
- IFN-γ ([1]; Table 24, donor 28237): 1167 pg/mL
- IFN-α mean [1, 3]: 41 pg/mL
- IFN-γ mean [1, 3]: 321 pg/mL
- IFN-a ([1]; Table 25, donor 28250): 16 pg/mL
- IFN-a ([1]; Table 25, donor 28251): 16 pg/mL
- IFN-g ([1]; Table 25, donor 28251): 18 pg/mL
- IFN-a ([1]; Table 25, donor 28252): 16 pg/mL
- IFN-g ([1]; Table 25, donor 28252): 34 pg/mL
- IFN-a ([1]; Table 25, donor 28253): 16 pg/mL
- IFN-g ([1]; Table 25, donor 28253): 37 pg/mL
- IFN-a mean [1, 4]: 16 pg/mL
- IFN-g mean [1, 4]: 52 pg/mL
- IFN-α ([1]; donor 110, Table 14): 50 pg/mL
- IFN-γ ([1]; donor 110, Table 14): 1508 pg/mL
- IFN-α ([1]; donor 112, Table 14): 172 pg/mL
- IFN-γ ([1]; donor 112, Table 14): 344 pg/mL
- IFN-α ([1]; donor 119, Table 14): 234 pg/mL
- IFN-γ ([1]; donor 119, Table 14): 144 pg/mL
- IFN-α ([1]; donor 120, Table 14): 72 pg/mL
- IFN-γ ([1]; donor 120, Table 14): 104 pg/mL
- IFN-α ([1]; donor 28057, Table 16): 621 pg/mL
- IFN-γ ([1]; donor 28057, Table 16): 83 pg/mL
- IFN-α ([1]; donor 28058, Table 16): 396 pg/mL
- IFN-γ ([1]; donor 28058, Table 16): 103 pg/mL
- IFN-α ([1]; donor 28059, Table 16): 145 pg/mL
- IFN-γ ([1]; donor 28059, Table 16): 1230 pg/mL
- IFN-α ([1]; donor 28060, Table 16): 123 pg/mL
- IFN-γ ([1]; donor 28060, Table 16): 85 pg/mL
- IFN-γ (pg/ml) 28065 ([1]; donor 28065 (high background), 20 ug/ml, 24 h, + PLGA = premixed with 100 μg/ml cPLGA, 1000 = outside assay limits): 439 pg/mL
- IFN-α (pg/ml) 28065 ([1]; donor 28065, 20 ug/ml, 24 h, + PLGA = premixed with 100 μg/ml cPLGA): 14 pg/mL
- IFN-α (pg/ml) 28066 [1, 5]: 17 pg/mL
- IFN-γ (pg/ml) 28066 [1, 5]: 12 pg/mL
- IFN-α (pg/ml) 28067 [1, 6]: 45 pg/mL
- IFN-γ (pg/ml) 28067 [1, 6]: 28 pg/mL
- IFN-α (pg/ml) 28068 [1, 7]: 126 pg/mL
- IFN-γ (pg/ml) 28068 [1, 7]: 906 pg/mL
- IFN-a ([1]; donor 28185, Table 15): 120 pg/mL
- IFN-g ([1]; donor 28185, Table 15): 205 pg/mL
- IFN-a ([1]; donor 28186, Table 15): 41 pg/mL
- IFN-g ([1]; donor 28186, Table 15): 17 pg/mL
- IFN-a ([1]; donor 28187, Table 15): 4 pg/mL
- IFN-g ([1]; donor 28187, Table 15): 148 pg/mL
- IFN-a ([1]; donor 28188, Table 15): 4 pg/mL
- IFN-g ([1]; donor 28188, Table 15): 8 pg/mL
- IFN-a (pg/ml) 28218 ([1]; donor 28218, 20 μg/ml, 24 h): 32 pg/mL
- IFN-g (pg/ml) 28218 ([1]; donor 28218, 20 μg/ml, 24 h): 13 pg/mL
- IFN-a (pg/ml) 28219 ([1]; donor 28219, 20 μg/ml, 24 h): 32 pg/mL
- IFN-g (pg/ml) 28219 ([1]; donor 28219, 20 μg/ml, 24 h): 7 pg/mL
- IFN-a (pg/ml) 28220 ([1]; donor 28220, 20 μg/ml, 24 h): 32 pg/mL
- IFN-g (pg/ml) 28220 ([1]; donor 28220, 20 μg/ml, 24 h): 25 pg/mL
- IFN-a (pg/ml) 28221 ([1]; donor 28221, 20 μg/ml, 24 h): 32 pg/mL
- IFN-g (pg/ml) 28221 ([1]; donor 28221, 20 μg/ml, 24 h): 141 pg/mL
- IFN-α (pg/ml) mean [1, 8]: 220 pg/mL
- IFN-γ (pg/ml) mean [1, 8]: 1425 pg/mL
- IFN-α (pg/ml) mean [1, 9]: 67 pg/mL
- IFN-γ (pg/ml) mean [1, 9]: 161 pg/mL
- IFN-α (pg/ml) mean [1, 10]: 268 pg/mL
- IFN-γ (pg/ml) mean [1, 10]: 621 pg/mL
- IFN-α (pg/ml) mean [1, 11]: 32 pg/mL
- IFN-γ (pg/ml) mean [1, 11]: 191 pg/mL
- IFN-α mean [1, 12]: 16
- IFN-γ mean [1, 12]: 45
- IFN-α (pg/ml) mean [1, 13]: 132 pg/mL
- IFN-γ (pg/ml) mean [1, 13]: 525 pg/mL
- IFN-α (pg/ml) mean [1, 14]: 321 pg/mL
- IFN-γ (pg/ml) mean [1, 14]: 375 pg/mL
- IFN-α (pg/ml) mean [1, 15]: 50 pg/mL
- IFN-γ (pg/ml) mean [1, 15]: 346 pg/mL
- IFN-a (pg/ml) mean [1, 16]: 42 pg/mL
- IFN-g (pg/ml) mean [1, 16]: 94 pg/mL
- IFN-a (pg/ml) mean [1, 17]: 32 pg/mL
- IFN-g (pg/ml) mean [1, 17]: 47 pg/mL
- IFN-a (pg/ml) ×2 ([1]; mean ×2, Table 15): 84 pg/mL
- IFN-g (pg/ml) ×4 ([1]; mean ×4, Table 15): 378 pg/mL
- induction of serum IL-12 p40, IL-6 and TNF-α, in words [2]: induced IL-12 p40, IL-6, and TNF-α
